Article PMC12518634, “The noncanonical function of liver-type phosphofructokinase potentiates the efficacy of HDAC inhibitors in cancer” (Signal Transduction and Targeted Therapy, 2025)
Where two headings read alike, the source gives them in different places.

Assays:
[1] = tested on: 783C-6; experiment: High-throughput drug screen, CellTiter-Glo viability, 72 h; type: cell-based, human; design: AUC: scale not given here; settings: for EC50: read-out: EC50
Description: (§1) The cells were seeded and incubated with a gradient of concentrations of drugs for 72 h, after which the cell viability was assessed (Supplementary Fig. 1a). The drug library primarily comprises epigenetic drugs, including HDAC inhibitors, DNA methyltransferase inhibitors, and histone demethylase inhibitors, as well as conventional chemotherapies and kinase inhibitors (Supplementary Fig. 1b and Supplementary Table 1). […] To identify novel therapeutics against CCA, we conducted a high-throughput screen employing PerkinElmer’s integrated robotic Explorer G3 workstations. […] Following dilution to five specified concentrations, drugs were dispensed into 96-well plates in the sequence detailed in Supplementary Fig. 1a. The CCA cell lines were subsequently plated in 384-well plates at a density of 3000 cells per well in a 20 μL total volume. After a 24-h incubation, the compounds were added to the wells and incubated for 72 h. We then quantified cell viability via the CellTiter-Glo luminescent assay according to the manufacturer’s protocol. Signal detection was carried out on a Synergy2 plate reader operated by Gen5 software (BioTek). For data processing, the raw luminescence data were processed through the Breeze pipeline for curve fitting, yielding quality control metrics (e.g., Z-factors) and drug response parameters (AUC and DSS), as adapted from previous work.[54] Drug responses were evaluated on the basis of the drug sensitivity score (DSS), and a cutoff of ≥10 was used to define efficacy. The complete drug library and screening dataset are available in Supplementary Tables 1-3.
(§2) Supplementary Fig. 1. A high-throughput drug screen to identify drugs targeting CCA. a Schematic representation of the drug screening protocol. […] Each drug was tested at five different concentrations (10, 1, 0.1, 0.01, and 0.001 μM), and each treatment was replicated twice. b Classification of drugs used for screening.

[2] = tested on: 1405R3; experiment: as above; type: cell-based, human; design: AUC: scale not given here; settings: for EC50: fitted dose-response curve, Min.Conc.tested 1, Max.Conc.tested 10000, read-out: EC50
Description: as §1, §2

[3] = 783C-6 DSRT analysis, DSS calculated from the dose-response curve
[4] = 783C-6 DSRT analysis, MIN of the fitted dose-response curve
[5] = 783C-6 DSRT analysis, area under the dose-response curve
[6] = 1405R3 DSRT analysis, area under the dose-response curve
[7] = 1405R3 DSRT analysis, lower asymptote of fitted dose-response curve
[8] = Homo sapiens, 1405R3 DSRT analysis, CellTiter-Glo, 72 h
[9] = 783C-6 DSRT analysis, slope of the fitted dose-response curve
[10] = 1405R3 DSRT analysis, slope of fitted dose-response curve
[11] = 783C-6 DSRT analysis, CellTiter-Glo viability, 72 h, fitted dose-response curve, Min.Conc.tested 1, Max.Conc.tested 10000
[12] = 1405R3 DSRT analysis, CellTiter-Glo, 72 h
[13] = 783C-6 cells, DSS of DSRT analysis
[14] = 783C-6 cells, area under the dose-response curve
[15] = 783C-6 cells, minimum of dose-response curve
[16] = 1405R3 DSRT analysis, drug sensitivity score
[17] = 783C-6 cells, slope of fitted dose-response curve

c1ccc([C@@H]2C[C@H]2NC2CCNCC2)cc1 [GSK-LSD1 2HCl]
D1 [1]: 98.8 | D2 [1]: 106.9 | D3 [1]: 94.2 | D4 [1]: 93.9 | D5 [1]: 108.3 | MAX [1]: 100 | MIN [1]: 93.9 | SLOPE [1]: -0.3 | AUC ([1]; 72 h): 6 | DSS ([1]; 72 h): 0 | D1 [2]: 104.9 | D2 [2]: 104.6 | D3 [2]: 91.3 | D4 [2]: 100.7 | D5 [2]: 129.6 | MAX [2]: 100 | MIN [2]: 91.3 | SLOPE [2]: -0.4 | DSS ([2]; 1405R3 DSRT analysis, DSS): 0 | AUC ([2]; 72 h): 5.8

COc1cc2ncnc(Nc3ccc(F)c(Cl)c3)c2cc1OCCCN1CCOCC1 [Gefitinib]
DSS [1, 3]: 2.5 | MIN [1, 4]: 77.5 | AUC [1, 5]: 27 | DSS ([2]; 1405R3 DSRT analysis, DSS): 3.6 | AUC [2, 6]: 33.5 | MIN [2, 7]: 70.6

Nc1ccn([C@@H]2O[C@H](CO)[C@@H](O)C2(F)F)c(=O)n1 [Gemcitabine]
DSS [1, 3]: 7.6 | MIN [1, 4]: 63.5 | AUC [1, 5]: 82.5 | EC50 ([1]; Homo sapiens, 72 h): 40.1 nM | DSS ([2]; 1405R3 DSRT analysis, DSS): 17.6 | AUC [2, 6]: 151.9 | MIN [2, 7]: 40 | EC50 [2, 8]: 26.1 nM

CCN(CC)Cc1ccc2cc(COC(=O)Nc3ccc(C(=O)NO)cc3)ccc2c1 [Givinostat]
DSS [1, 3]: 9.2 | MIN [1, 4]: 1.5 | AUC [1, 5]: 81.1 | EC50 ([1]; Homo sapiens, 72 h): 1520 nM | DSS ([2]; 1405R3 DSRT analysis, DSS): 9.2 | AUC [2, 6]: 79.9 | MIN [2, 7]: 1.5 | EC50 [2, 8]: 1550 nM

O=C(NO)c1ccc(CC(=O)N(CCO)c2ccccc2)cc1 [HPOB]
DSS [1, 3]: 0 | MIN [1, 4]: 98.7 | AUC [1, 5]: 0.4 | SLOPE [1, 9]: -1 | DSS ([2]; 1405R3 DSRT analysis, DSS): 0 | AUC [2, 6]: 0.1 | MIN [2, 7]: 100 | SLOPE [2, 10]: -0.1

CCNC(=O)C[C@@H]1N=C(c2ccc(Cl)cc2)c2cc(OC)ccc2-n2c(C)nnc21 [I-BET-762]
DSS [1, 3]: 0 | MIN [1, 4]: 97 | SLOPE [1, 9]: -2.5 | DSS ([2]; 1405R3 DSRT analysis, DSS): 6 | MIN [2, 7]: 42 | SLOPE [2, 10]: -2.5

O=C1[C@H](Cc2ccc(O)cc2)N2C(=O)CCN(C(=O)NCc3ccccc3)[C@H]2CN1Cc1cccc2ccccc12 [ICG-001]
DSS [1, 3]: 0 | MIN [1, 4]: 90.7 | AUC [1, 5]: 16.9 | SLOPE [1, 9]: -2.5 | DSS ([2]; 1405R3 DSRT analysis, DSS): 0 | AUC [2, 6]: 0.1 | MIN [2, 7]: 100 | SLOPE [2, 10]: -0.1

C#Cc1cccc(Nc2ncnc3cc4c(cc23)OCCOCCOCCO4)c1 [Icotinib]
DSS [1, 3]: 0 | MIN [1, 4]: 90.4 | AUC [1, 5]: 16.8 | DSS ([2]; 1405R3 DSRT analysis, DSS): 1.4 | AUC [2, 6]: 21.6 | MIN [2, 7]: 84.3

Clc1ccc(N/N=C(\c2ccccc2)c2ccccn2)nc1 [JIB-04]
EC50 [1, 11]: 2960 nM | DSS [1, 3]: 4.8 | MIN [1, 4]: 18.2 | AUC [1, 5]: 43.9 | SLOPE [1, 9]: -2.5 | DSS ([2]; 1405R3 DSRT analysis, DSS): 8.1 | AUC [2, 6]: 73.8 | EC50 [2, 12]: 766 nM | MIN [2, 7]: 34.7 | SLOPE [2, 10]: -1.2

Cc1nn2c([nH]c(=O)c3cccnc32)c1C#N [KDM4D-IN-1]
DSS [1, 3]: 0 | MIN [1, 4]: 93.6 | AUC [1, 5]: 0.8 | SLOPE [1, 9]: -2.5 | DSS ([2]; 1405R3 DSRT analysis, DSS): 0 | AUC [2, 6]: 9.3 | MIN [2, 7]: 94 | SLOPE [2, 10]: -0.1

Cc1cn(CCN2CCN(c3ccccc3-c3cc(C#N)cc(C(=O)NCCCN4CCCC4)c3)CC2)c2ccccc12 [LLY-507]
DSS [1, 3]: 3.9 | MIN [1, 4]: 23.1 | AUC [1, 5]: 36.6 | EC50 ([1]; Homo sapiens, 72 h): 3430 nM | DSS ([2]; 1405R3 DSRT analysis, DSS): 5.5 | AUC [2, 6]: 49.7 | MIN [2, 7]: 1.8 | EC50 [2, 8]: 3190 nM

Cc1cc(C)cc(C(=O)NOCCCCCC(=O)NO)c1 [LMK-235]
EC50 [1, 11]: 1330 nM | DSS [1, 3]: 9.8 | MIN [1, 4]: 3.5 | AUC [1, 5]: 84.5 | SLOPE [1, 9]: -2.5 | DSS ([2]; 1405R3 DSRT analysis, DSS): 11.6 | AUC [2, 6]: 101.6 | EC50 [2, 12]: 927 nM | MIN [2, 7]: 2 | SLOPE [2, 10]: -1.7

CS(=O)(=O)CCNCc1ccc(-c2ccc3ncnc(Nc4ccc(OCc5cccc(F)c5)c(Cl)c4)c3c2)o1 [Lapatinib]
DSS [1, 3]: 0 | MIN [1, 4]: 93.5 | AUC [1, 5]: 2 | DSS ([2]; 1405R3 DSRT analysis, DSS): 0 | AUC [2, 6]: 0 | MIN [2, 7]: 99.9

COc1cc2nccc(Oc3ccc(NC(=O)NC4CC4)c(Cl)c3)c2cc1C(N)=O [Lenvatinib]
DSS [1, 3]: 0 | MIN [1, 4]: 93.6 | AUC [1, 5]: 8.6 | DSS ([2]; 1405R3 DSRT analysis, DSS): 0 | AUC [2, 6]: 0.1 | MIN [2, 7]: 99.3

Cc1ccc(F)c(NC(=O)Nc2ccc(-c3cccc4[nH]nc(N)c34)cc2)c1 [Linifanib]
DSS [1, 3]: 3.9 | MIN [1, 4]: 68.4 | AUC [1, 5]: 53 | EC50 ([1]; Homo sapiens, 72 h): 255 nM | DSS ([2]; 1405R3 DSRT analysis, DSS): 0 | AUC [2, 6]: 3.9 | MIN [2, 7]: 97.4

Cn1c(/C=C/C(=O)NO)ccc1/C=C/C(=O)c1cccc(F)c1 [MC1568]
DSS [1, 3]: 0 | MIN [1, 4]: 98.4 | AUC [1, 5]: 0.2 | SLOPE [1, 9]: -2.5 | DSS ([2]; 1405R3 DSRT analysis, DSS): 0 | AUC [2, 6]: 2.6 | MIN [2, 7]: 94.6 | SLOPE [2, 10]: -0.6

CCCCCCCc1ccc(CCc2cccc(O)c2C(=O)O)cc1 [MG149]
DSS [1, 3]: 0 | MIN [1, 4]: 87.6 | AUC [1, 5]: 3.7 | SLOPE [1, 9]: -1 | DSS ([2]; 1405R3 DSRT analysis, DSS): 0 | AUC [2, 6]: 18.5 | MIN [2, 7]: 85.7 | SLOPE [2, 10]: -0.2

O=C(O)[C@]1(Cc2cccc(Nc3nccs3)n2)CC[C@@H](Oc2cccc(Cl)c2F)CC1 [MK-5108]
DSS [1, 3]: 4.3 | MIN [1, 4]: 74.1 | AUC [1, 5]: 61.3 | EC50 ([1]; Homo sapiens, 72 h): 22.8 nM | DSS ([2]; 1405R3 DSRT analysis, DSS): 0 | AUC [2, 6]: 0.5 | MIN [2, 7]: 98.2

O=C(O)c1ccc(Nc2ncc3c(n2)-c2ccc(Cl)cc2C(c2c(F)cccc2F)=NC3)cc1 [MLN8054]
DSS [1, 3]: 0 | MIN [1, 4]: 70.8 | AUC [1, 5]: 8.8 | DSS ([2]; 1405R3 DSRT analysis, DSS): 0 | AUC [2, 6]: 6.8 | MIN [2, 7]: 90.2

CCC(CC)(NC(=O)C(C)C)C(=O)N[C@@H](CCCN=C(N)N)C(=O)NC1(C(=O)NC(c2ccc(F)cc2)c2ccc(F)cc2)CCCC1 [MM-102]
DSS [1, 3]: 0 | MIN [1, 4]: 88.1 | AUC [1, 5]: 18.6 | SLOPE [1, 9]: -0.1 | DSS ([2]; 1405R3 DSRT analysis, DSS): 0 | AUC [2, 6]: 18.6 | MIN [2, 7]: 88.1 | SLOPE [2, 10]: -0.1

CC(C)Oc1ccc(-c2c[nH]cc2CN(C)CCN)cc1 [MS023]
DSS [1, 13]: 3.9 | AUC [1, 14]: 57.8 | MIN [1, 15]: 80.8 | AUC [2, 6]: 7.3 | DSS [2, 16]: 0 | MIN [2, 7]: 75.6

CNCCN1CCC(OCc2ccccc2)CC1 [MS049]
DSS [1, 13]: 0 | AUC [1, 14]: 4.9 | MIN [1, 15]: 83.6 | SLOPE [1, 17]: -1 | AUC [2, 6]: 20.8 | DSS [2, 16]: 0 | MIN [2, 7]: 86.6 | SLOPE [2, 10]: -0.1

Nc1ccccc1NC(=O)c1ccc(CNc2nccc(-c3cccnc3)n2)cc1 [Mocetinostat]
DSS [1, 13]: 11.6 | AUC [1, 14]: 98.8 | MIN [1, 15]: 4.8 | EC50 ([1]; Homo sapiens, 72 h): 917 nM | AUC [2, 6]: 100.5 | DSS [2, 16]: 11.8 | MIN [2, 7]: 1.1 | EC50 ([2]; Homo sapiens, 1405R3 DSRT analysis, CellTiter-Glo viability, 72 h, GI50): 965 nM

Cc1cc(-c2ccc3nc(C4CCOCC4)n(CCOC(F)(F)F)c3c2)cn(C)c1=O [NEO2734]
EC50 ([1]; 783C-6 cells, DSRT analysis, CellTiter-Glo viability, 72 h, concentrations tested 1 to 10000 (unit inferred), GI50): 87.4 nM | DSS [1, 13]: 6.1 | AUC [1, 14]: 72.8 | MIN [1, 15]: 64.2 | SLOPE [1, 17]: -0.3 | EC50 ([2]; 1405R3 DSRT analysis, CellTiter-Glo viability, 72 h, GI50): 407 nM | AUC [2, 6]: 130.5 | DSS [2, 16]: 14.3 | MIN [2, 7]: 8.1 | SLOPE [2, 10]: -0.9

CCCCN(Cc1ccc(C(=O)NO)cc1)C(=O)Nc1ccccc1 [Nexturastat A]
DSS [1, 13]: 0 | AUC [1, 14]: 4.3 | MIN [1, 15]: 85.6 | AUC [2, 6]: 0.7 | DSS [2, 16]: 0 | MIN [2, 7]: 93.8
